Test results published in patent US20020099098A1, “Method for treating sexual disorders” (priority 2001, published 2002).

System: patients
Assay: randomised placebo-controlled double-blind study of deramciclane
Assay type: in vivo
Conditions: for number of patients with decreased libido: placebo 2 out of 51, p=0.04, Chi-square-test
Experimental: The effects of deramciclane were studied in a randomised placebo-controlled double-blind study. The subjects were randomly assigned to four parallel groups to receive one tablet twice daily (b.i.d) of a placebo, 5 mg (=10 mg/day), 15 mg (=30 mg/day), or 30 mg (=60 mg/day) deramciclane.
When analyzing the number of patients with decreased libido, 2 out of 51 patients on placebo experienced it, but none of the patients treated with deramciclane 15 mg b.i.d. (n=53) or 30 mg b.i.d.(n=54) experienced decreased libido (p=0.04, Chi-square-test). In addition, when the Udvalg for Kliniske Undersogelser (UKU) scale was used, 21% of 53 patients experienced orgastic dysfunction at the baseline but only 12% of them after 8-week treatment with deramciclane 15 mg b.i.d.

CN(C)CCO[C@]1(c2ccccc2)C[C@H]2CC[C@]1(C)C2(C)C [deramciclane, (1R,2S,4R)-(−)-2-phenyl 2-(dimethylaminoethoxy)-1,7,7-trimethyl-bicyclo[2.2.1]heptane]
patients experiencing orgastic dysfunction (UKU scale) (after 8-week treatment with deramciclane 15 mg b.i.d., baseline 21% of 53 patients): 12% | number of patients with decreased libido (deramciclane 15 mg b.i.d. (=30 mg/day), n=53): none | number of patients with decreased libido (deramciclane 30 mg b.i.d. (=60 mg/day), n=54): none
